From the supplement of paper PMC5908809

Columns and labels:
[1] = tested on: normal NK cells expanded with K562-aAPC; experiment: percent inhibition of viability; higher = more inhibition; settings: 72 h, IL-2 2.5 ng/mL
Procedure: (§1)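 Drug sensitivity and resistance testing on K562-aAPC-expanded normal NK cells: 5 concentrations (10-fold steps over a 10,000-fold range), 72 h at 37 °C, viability by CellTiter-Glo normalised to DMSO and benzethonium chloride controls; DSS from the fitted curve.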

DERL-7 (IL-2 2.5 ng/mL) [2] = experiment: as above; settings: 72 h
IMC-1 (IL-2 20 ng/mL) [3] = experiment: as above; settings: 72 h
KAI3 (IL-2 2.5 ng/mL) [4] = experiment: as above; settings: 72 h
KHYG-1 (IL-2 2.5 ng/mL) [5] = experiment: as above; settings: 72 h
NK-92 (IL-2 2.5 ng/mL) [6] = experiment: as above; settings: 72 h
NK-YS (IL-2 2.5 ng/mL) [7] = experiment: as above; settings: 72 h
NKL (IL-2 2.5 ng/mL) [8] = experiment: as above; settings: 72 h
SNK-6 (IL-2 2.5 ng/mL) [9] = experiment: as above; settings: 72 h
YT (IL-2 2.5 ng/mL) [10] = experiment: as above; settings: 72 h
[11] = tested on: normal primary NK cells, pool 1 (3 donors) (IL-2 2.5 ng/mL); experiment: as above; settings: 72 h
[12] = tested on: normal primary NK cells, pool 1 (3 donors), resting (IL-2 0 ng/mL); experiment: as above; settings: 72 h
[13] = tested on: normal primary NK cells, pool 2 (3 donors) (IL-2 2.5 ng/mL); experiment: as above; settings: 72 h
[14] = tested on: normal primary NK cells, pool 3 (3 donors) (IL-2 2.5 ng/mL); experiment: as above; settings: 72 h
[15] = tested on: normal NK cells expanded with K562-aAPC; experiment: drug sensitivity score (DSS) (DSS units); higher = more sensitive; extreme values may be limits of the assay; settings: 72 h; IL-2 2.5 ng/mL
Procedure: as §1

DERL-7 (IL-2 2.5 ng/mL) [16] = experiment: as above; settings: 72 h
IMC-1 (IL-2 20 ng/mL) [17] = experiment: as above; settings: 72 h
KAI3 (IL-2 2.5 ng/mL) [18] = experiment: as above; settings: 72 h
KHYG-1 (IL-2 2.5 ng/mL) [19] = experiment: as above; settings: 72 h
NK-92 (IL-2 2.5 ng/mL) [20] = experiment: as above; settings: 72 h
NK-YS (IL-2 2.5 ng/mL) [21] = experiment: as above; settings: 72 h
NKL (IL-2 2.5 ng/mL) [22] = experiment: as above; settings: 72 h
SNK-6 (IL-2 2.5 ng/mL) [23] = experiment: as above; settings: 72 h
YT (IL-2 2.5 ng/mL) [24] = experiment: as above; settings: 72 h
[25] = tested on: normal primary NK cells, pool 1 (3 donors) (IL-2 2.5 ng/mL); experiment: as above; settings: 72 h
[26] = tested on: normal primary NK cells, pool 1 (3 donors), resting (IL-2 0 ng/mL); experiment: as above; settings: 72 h
[27] = tested on: normal primary NK cells, pool 2 (3 donors) (IL-2 2.5 ng/mL); experiment: as above; settings: 72 h
[28] = tested on: normal primary NK cells, pool 3 (3 donors) (IL-2 2.5 ng/mL); experiment: as above; settings: 72 h

Cc1c2oc3c(C)ccc(C(=O)N[C@@H]4C(=O)N[C@H](C(C)C)C(=O)N5CCC[C@H]5C(=O)N(C)CC(=O)N(C)[C@@H](C(C)C)C(=O)O[C@@H]4C)c3nc-2c(C(=O)N[C@@H]2C(=O)N[C@H](C(C)C)C(=O)N3CCC[C@H]3C(=O)N(C)CC(=O)N(C)[C@@H](C(C)C)C(=O)O[C@@H]2C)c(N)c1=O [Dactinomycin] (max concentration tested 1000 nM)
percent inhibition of viability [%]
Settings	0.1 nM	1 nM	10 nM	100 nM	1000 nM
DERL-7 (IL-2 2.5 ng/mL) [2]	-0.87	44.9	83	101	101
IMC-1 (IL-2 20 ng/mL) [3]	-6.77	-14.7	38.1	100	101
KAI3 (IL-2 2.5 ng/mL) [4]	-6.19	34.4	52.9	103	107
KHYG-1 (IL-2 2.5 ng/mL) [5]	-3.25	36.4	71	106	108
NK-92 (IL-2 2.5 ng/mL) [6]	-12.8	-6.87	22	87.4	105
NK-YS (IL-2 2.5 ng/mL) [7]	5.62	72.3	94.4	106	107
NKL (IL-2 2.5 ng/mL) [8]	-4.78	72.4	84.8	108	110
SNK-6 (IL-2 2.5 ng/mL) [9]	33.9	71.2	81.7	99.6	78.6
YT (IL-2 2.5 ng/mL) [10]	0.56	51	97.4	107	108
[1]	1.4	5.24	28.6	101	101
[11]	5.89	7.37	35.9	98.4	98.6
[12]	-15.9	13.6	67.8	91.7	90.8
[13]	-13.2	8.51	64.2	94.5	95.7
[14]	-10.8	5.15	39.6	98.5	99.8

Settings	drug sensitivity score
DERL-7 (IL-2 2.5 ng/mL) [16]	33.6
IMC-1 (IL-2 20 ng/mL) [17]	23.2
KAI3 (IL-2 2.5 ng/mL) [18]	26.6
KHYG-1 (IL-2 2.5 ng/mL) [19]	30.4
NK-92 (IL-2 2.5 ng/mL) [20]	18.8
NK-YS (IL-2 2.5 ng/mL) [21]	39.5
NKL (IL-2 2.5 ng/mL) [22]	38.8
SNK-6 (IL-2 2.5 ng/mL) [23]	38.1
YT (IL-2 2.5 ng/mL) [24]	36.5
[15]	22.2
[25]	22
[26]	25.8
[27]	25.3
[28]	22.5

O=C(/C=C/c1cccnc1)NCCCCC1CCN(C(=O)c2ccccc2)CC1 [Daporinad] (max concentration tested 1000 nM)
percent inhibition of viability [%]
Settings	0.1 nM	1 nM	10 nM	100 nM	1000 nM
DERL-7 (IL-2 2.5 ng/mL) [2]	-1.42	36.4	98.7	99.8	101
IMC-1 (IL-2 20 ng/mL) [3]	-4.3	-0.58	95.2	101	99.6
KAI3 (IL-2 2.5 ng/mL) [4]	0.04	4.42	89.6	104	107
KHYG-1 (IL-2 2.5 ng/mL) [5]	-4.62	0.47	102	108	110
NK-92 (IL-2 2.5 ng/mL) [6]	-12.4	-11	78.5	107	110
NK-YS (IL-2 2.5 ng/mL) [7]	-0.02	65.7	101	107	109
NKL (IL-2 2.5 ng/mL) [8]	-7.99	8.6	96.8	106	109
SNK-6 (IL-2 2.5 ng/mL) [9]	-2.25	67.5	98.8	101	101
YT (IL-2 2.5 ng/mL) [10]	-3.84	3.35	72	106	109
[1]	-5.42	-8.02	95.3	98.9	99.5
[11]	3.25	78.4	97.4	98.2	98.6
[12]	19.1	78.8	93.6	93.4	94.4
[13]	1.47	71.4	96.2	96.4	95.7
[14]	0.86	57.3	98.6	99.3	100

Settings	drug sensitivity score
DERL-7 (IL-2 2.5 ng/mL) [16]	35.4
IMC-1 (IL-2 20 ng/mL) [17]	29.8
KAI3 (IL-2 2.5 ng/mL) [18]	29.3
KHYG-1 (IL-2 2.5 ng/mL) [19]	30.7
NK-92 (IL-2 2.5 ng/mL) [20]	26.9
NK-YS (IL-2 2.5 ng/mL) [21]	38.1
NKL (IL-2 2.5 ng/mL) [22]	31.6
SNK-6 (IL-2 2.5 ng/mL) [23]	38.3
YT (IL-2 2.5 ng/mL) [24]	26.6
[15]	29.2
[25]	39.6
[26]	40.4
[27]	37.9
[28]	37.3
